For one compound, IC50 and GI50 results are on record in patent US7193079B1 (Board of Trustees of Michigan State University, priority 2003, dated 2007).

The subject of one assay is IL-2 production. Description: Inhibition of IL-2 production measured by competitive EIA in PMA/PHA-activated Jurkat T cells. The class given is cell-based, human. Particulars: PMA/PHA-activated Jurkat T cells, EIA, means of two experiments, standard deviation in parentheses. The method, then:
(§1) Exposure of human Jurkat leukemia T-cells to phorbol myristate acetate (PMA/PHA) and THP-1 cells to lipopolysaccharide (LPS), activates NF-κB mediated gene transcription of several pro-inflammatory cytokines, including IL-2, IL-6, IL-8 and TNF-α (Baldwin, Ann. Rev. Immunol. 14: 649–683 (1996); Grilli et al., Int. Rev. Cytol. 143: 1–62 (1993)). […] The inhibition of IL-2 was evaluated in Jurkat cells after PMA/PHA activation (Mahon and O'Neill, J. Biol. Chem. 270: 28557–28564 (1995); Lindgren et al., Molec. Immunol. 38V 267–277 (2001)). The inhibition of TNF-α was evaluated in THP-1 cells after LPS activation (Aikawa et al., Inflamm. Res. 51: 188–194 (2002)). […] After 24 hours, the cell free supernatant fractions were collected and subjected to EIA for the quantification of total IL-2 production.
To each well of a flat bottomed 96 well culture plate 0.2 mL 1×10^6 Jurkat E6-1 cells/mL were added. Each sample was then treated in duplicate with the compounds in DMSO at either 10 μM, 1 μM, 0.1 μM or 10 ηM and allowed to incubate for thirty minutes at 37° C., 5% CO2. Cell free supernatant fractions were collected from stimulated cultures incubated for 24 hr at 37° C., 5% CO2. Cultures were stimulated with phytohemagglutinin (PHA, Sigma-Aldrich, St. Louis, Mo.) at 1 μg/mL; and phorbol myristate acetate (PMA, Sigma-Aldrich, St. Louis, Mo.) at 50 ng/mL. The concentration of IL-2 in each sample was then measured using a competitive enzyme immunoassay (Neogen Corporation, Lansing, Mich.) according to the manufacturer's protocol. Known IL-2 concentrations were plotted and fit a 4 parameter logistic curve. Unknown concentrations were then extrapolated from the standard curve.

A further assay relates to TNF-α production. In words: Inhibition of TNF-α production measured by competitive EIA in LPS stimulated THP-1 cells. The class given is cell-based, human. Conditions: EIA, 3 hr incubation, means of two experiments, standard deviation in parentheses. The method, then:
as §1
The assay measured the ability of the compounds to inhibit TNF-α production in LPS stimulated THP-1 cells (Aikawa et al., Inflamm. Res. 51V 188–194 (2002)).
THP-1 cells are grown in RPMI-1640 Media (Gibco-BRL, Rockville, Md.) supplemented with 5% fetal bovine serum, penicillin (614 ηg/mL), streptomycin (10 μg/mL) and HEPES buffer, pH 7.2 at 37° C., 5% CO2. To each well of a flat bottomed 96 well culture plate 0.2 mL 1×10^6 THP-1 cells/mL were added. Each sample was then treated in duplicate with the compounds in DMSO at either 10 μM, 1 μM, 0.1 μM or 10 ηM and allowed to incubate for thirty minutes at 37° C., 5% CO2. Cell free supernatant fractions were collected from stimulated cultures incubated for 3 hr at 37° C., 5% CO2. Cultures were stimulated with LPS (Sigma-Aldrich, St. Louis, Mo.) at 1 μg/mL. The concentration of TNF-α in each sample was then measured using a competitive enzyme immunoassay (Neogen Corporation, Lansing, Mich.) according to the manufacturer's protocol. To make a standard curve, known TNF-α concentrations were plotted and fitted to a 4 parameter logistic curve. Unknown concentrations were then extrapolated from the standard curve.

Another assay deals with CEM leukemia cells. In words: Inhibition of cell growth in CEM leukemia cells (trypan blue counting). Conditions: 48 hour, means of two experiments, standard deviation in parentheses. The class given is cell-based. The method, then:
Cells were treated at different concentrations ranging from 10 ηM to 5 μM concentrations over a 48 hour time period.
CEM cells (CCRF-CEM; ATCC No. CCL-119, American Type Culture Collection, Manassas, Va.) were grown in RPMI-1640 Media (Gibco-BRL, Rockville, Md.) supplemented with 10% Fetal Bovine Serum, penicillin (614 r1 g/mL), streptomycin (10 μg/mL) and HEPES buffer, pH 7.2 at 37° C., 5% CO2. DMSO was used as the vector for all drugs and added in the control experiments. Cell cultures were then treated with 10 μM, 1 μM, 0.1 μM or 10 ηM of the drug in duplicate and allowed to incubate at 37° C., 5% CO2. Cells were stained with 4% trypan blue solution in PBS, and counted under the microscope (Thomas Scientific, Fisher Scientific) in duplicate. This was repeated for Oh, 2 h, 6 h, 12 h, 24 h, and 48 h. The data points obtained were then plotted and a point-to-point curve was drawn to determine the effect of the drug on the cells.

The subject of the next assay is CDK1. Description: Inhibition of CDK1 (method of Meijer et al.). It is filed as biochemical. The text has this:
The inhibitory activity of compound 3 was less pronounced.

The next assay concerns the target GSK-3β (Homo sapiens, UniProt P49841). In words: Inhibition of GSK-3β (method of Meijer et al.). It is filed as biochemical.
Another assay concerns the target T1, CK1δ (h) (Homo sapiens, UniProt P48730).
T1 construct: purchased Upstate, UK (Kinase Profiler service)
Description: Upstate Kinase Profiler in vitro kinase assay, CK1δ. It is filed as biochemical. Conditions: 10 μM ATP. The method, then:
(§2) The potent inhibitory activity of the indoloazepines against checkpoint kinases Chk1 and Chk2 was determined. In vitro kinase Assay: Compound 2 was tested in vitro against the kinases indicated by Upstate, UK using a Kinase Profiler Assay according to the manufacturer's protocol. Briefly, in a final volume of 25 μl, the kinase was incubated with the desired buffer and the required polypeptide substrate, in presence of 10 mM magnesium acetate and γ-^33P-ATP (10 μM). After incubation for 40 minutes at room temperature, the reaction was stopped by the addition of 3% H3PO4 (5 μl). A 10 μl of the reaction was then spotted on a P30 filtermat and washed 3× in 75 mM H3PO4 and finally in methanol. Samples were then dried and signals counted on a scintillation counter. […] The results are shown in FIGS. 8 and 9 for CHK1 and CHK2.

Another assay deals with T2, CK2 (h) (Homo sapiens, UniProt P68400).
T2 construct: purchased Upstate, UK (Kinase Profiler service)
T2 sequence (P68400 whole entry): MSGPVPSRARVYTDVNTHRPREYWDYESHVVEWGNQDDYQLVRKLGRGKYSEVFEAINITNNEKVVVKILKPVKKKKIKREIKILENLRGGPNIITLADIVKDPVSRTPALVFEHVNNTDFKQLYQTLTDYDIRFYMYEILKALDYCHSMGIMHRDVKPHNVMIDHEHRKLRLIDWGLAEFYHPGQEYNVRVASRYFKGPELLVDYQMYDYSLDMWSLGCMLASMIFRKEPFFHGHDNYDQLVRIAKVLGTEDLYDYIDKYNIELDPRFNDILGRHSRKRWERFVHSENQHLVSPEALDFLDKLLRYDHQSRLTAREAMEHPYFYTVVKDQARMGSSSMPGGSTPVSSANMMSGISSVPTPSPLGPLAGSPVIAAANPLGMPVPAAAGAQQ
T2 sequence (P67870 whole entry partner): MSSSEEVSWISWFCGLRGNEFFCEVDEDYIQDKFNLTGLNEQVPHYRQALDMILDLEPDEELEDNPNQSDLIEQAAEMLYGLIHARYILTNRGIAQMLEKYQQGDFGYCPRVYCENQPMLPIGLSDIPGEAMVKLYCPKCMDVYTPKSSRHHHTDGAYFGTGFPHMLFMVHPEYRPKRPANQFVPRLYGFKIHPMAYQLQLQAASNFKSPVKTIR
In words: Upstate Kinase Profiler in vitro kinase assay, CK2. The class given is biochemical. Conditions: 10 μM ATP. The method, then: as §2

The target in a further assay is T3, MEK1 (h) (Homo sapiens, UniProt Q02750).
T3 construct: purchased Upstate, UK (Kinase Profiler service)
T3 sequence (Q02750 whole entry): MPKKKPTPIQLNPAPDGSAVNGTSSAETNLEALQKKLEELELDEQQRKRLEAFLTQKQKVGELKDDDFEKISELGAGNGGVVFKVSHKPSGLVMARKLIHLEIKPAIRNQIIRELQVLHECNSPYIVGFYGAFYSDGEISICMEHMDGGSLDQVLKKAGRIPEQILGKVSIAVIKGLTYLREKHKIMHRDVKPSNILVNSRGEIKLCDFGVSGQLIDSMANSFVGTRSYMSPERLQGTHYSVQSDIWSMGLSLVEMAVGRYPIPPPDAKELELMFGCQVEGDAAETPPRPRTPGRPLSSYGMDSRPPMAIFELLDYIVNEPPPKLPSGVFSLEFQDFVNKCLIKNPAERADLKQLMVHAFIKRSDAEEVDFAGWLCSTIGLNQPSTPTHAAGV
In words: Upstate Kinase Profiler in vitro kinase assay, MEK1. The class given is biochemical. Particulars: 10 μM ATP. The method, then:
as §2

The next assay has as its target T4, PKCα (h) (Homo sapiens, UniProt P17252).
T4 construct: purchased Upstate, UK (Kinase Profiler service)
In words: Upstate Kinase Profiler in vitro kinase assay, PKCα. It is filed as biochemical. Conditions: 10 μM ATP. The method, then: as §2

The target in a further assay is T5, PKCβII (h) (Homo sapiens, UniProt P05771).
T5 construct: purchased Upstate, UK (Kinase Profiler service)
T5 sequence (P05771 1-673 isoform P05771-2): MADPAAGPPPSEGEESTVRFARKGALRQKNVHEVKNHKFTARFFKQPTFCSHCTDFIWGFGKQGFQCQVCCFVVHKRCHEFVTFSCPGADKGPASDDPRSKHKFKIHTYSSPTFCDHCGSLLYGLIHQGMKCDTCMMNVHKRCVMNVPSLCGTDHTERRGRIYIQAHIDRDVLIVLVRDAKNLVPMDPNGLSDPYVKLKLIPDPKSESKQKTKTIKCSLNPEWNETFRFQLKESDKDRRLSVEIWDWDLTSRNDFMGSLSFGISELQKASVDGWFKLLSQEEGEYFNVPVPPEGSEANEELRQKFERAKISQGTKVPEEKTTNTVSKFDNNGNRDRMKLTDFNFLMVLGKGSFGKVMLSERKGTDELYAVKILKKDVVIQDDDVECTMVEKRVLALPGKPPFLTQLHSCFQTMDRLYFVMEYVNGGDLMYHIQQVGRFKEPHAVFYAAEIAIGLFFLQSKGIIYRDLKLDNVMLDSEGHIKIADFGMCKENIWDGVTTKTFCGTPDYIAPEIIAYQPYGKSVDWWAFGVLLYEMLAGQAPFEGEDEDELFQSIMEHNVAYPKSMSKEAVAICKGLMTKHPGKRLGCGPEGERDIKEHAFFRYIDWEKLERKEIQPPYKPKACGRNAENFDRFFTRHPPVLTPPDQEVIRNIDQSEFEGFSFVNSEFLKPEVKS
In words: Upstate Kinase Profiler in vitro kinase assay, PKCβII. It is filed as biochemical. Particulars: 10 μM ATP. The method, then: as §2

Another assay concerns the target T6, CHK1 (Homo sapiens, UniProt O14757).
T6 sequence (O14757 1-476): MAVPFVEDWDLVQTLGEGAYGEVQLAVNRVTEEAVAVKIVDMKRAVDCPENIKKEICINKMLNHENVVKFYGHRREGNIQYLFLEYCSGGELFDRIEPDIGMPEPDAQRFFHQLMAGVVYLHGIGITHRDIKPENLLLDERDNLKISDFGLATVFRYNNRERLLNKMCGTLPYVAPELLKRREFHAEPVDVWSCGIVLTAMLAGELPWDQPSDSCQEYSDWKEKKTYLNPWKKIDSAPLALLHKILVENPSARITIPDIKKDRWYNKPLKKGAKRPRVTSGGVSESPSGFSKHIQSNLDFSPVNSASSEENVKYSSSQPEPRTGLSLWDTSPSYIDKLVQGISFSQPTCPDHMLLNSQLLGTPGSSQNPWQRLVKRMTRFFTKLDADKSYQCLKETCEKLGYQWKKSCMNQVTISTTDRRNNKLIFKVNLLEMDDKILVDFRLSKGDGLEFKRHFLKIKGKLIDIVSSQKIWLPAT
Description: Upstate Kinase Profiler in vitro kinase assay, CHK1. The class given is biochemical. Particulars: 10 μM ATP. The method, then:
as §2, with “In” for “The potent inhibitory activity of the indoloazepines against checkpoint kinases Chk1 and Chk2 was determined. In”

For a further assay, the target named is T7, CHK2 (Homo sapiens, UniProt O96017).
T7 construct: purchased Upstate, UK (Kinase Profiler service)
T7 sequence (O96017 whole entry): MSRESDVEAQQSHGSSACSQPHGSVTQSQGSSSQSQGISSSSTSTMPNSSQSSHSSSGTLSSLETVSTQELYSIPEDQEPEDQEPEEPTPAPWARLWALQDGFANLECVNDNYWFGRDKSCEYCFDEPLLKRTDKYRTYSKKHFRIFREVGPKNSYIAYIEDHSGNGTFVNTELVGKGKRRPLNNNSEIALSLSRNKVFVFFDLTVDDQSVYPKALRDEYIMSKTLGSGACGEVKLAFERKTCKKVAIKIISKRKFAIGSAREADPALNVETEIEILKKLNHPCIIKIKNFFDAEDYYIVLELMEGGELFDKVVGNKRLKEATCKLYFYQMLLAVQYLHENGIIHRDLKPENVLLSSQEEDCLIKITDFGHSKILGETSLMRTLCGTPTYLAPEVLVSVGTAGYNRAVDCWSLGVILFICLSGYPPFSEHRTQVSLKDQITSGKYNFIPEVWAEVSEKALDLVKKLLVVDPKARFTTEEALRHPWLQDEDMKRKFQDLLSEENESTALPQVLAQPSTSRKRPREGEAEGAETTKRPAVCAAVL
In words: Upstate Kinase Profiler in vitro kinase assay, CHK2. It is filed as biochemical. Conditions: 10 μM ATP. The method, then:
as §2, with “In” for “The potent inhibitory activity of the indoloazepines against checkpoint kinases Chk1 and Chk2 was determined. In”

Chain of GSK-3β (P49841 whole entry, species assumed): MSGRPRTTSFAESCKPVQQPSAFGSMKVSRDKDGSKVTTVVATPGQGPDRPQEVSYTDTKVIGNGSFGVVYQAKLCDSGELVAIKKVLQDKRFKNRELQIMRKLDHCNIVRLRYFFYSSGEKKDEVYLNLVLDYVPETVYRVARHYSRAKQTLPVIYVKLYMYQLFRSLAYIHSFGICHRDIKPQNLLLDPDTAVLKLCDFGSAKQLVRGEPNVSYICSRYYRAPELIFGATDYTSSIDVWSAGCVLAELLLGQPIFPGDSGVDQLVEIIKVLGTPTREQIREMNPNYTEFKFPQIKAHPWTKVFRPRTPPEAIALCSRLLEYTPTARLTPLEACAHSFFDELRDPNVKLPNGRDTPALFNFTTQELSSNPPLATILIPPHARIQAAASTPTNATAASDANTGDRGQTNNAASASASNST
T1 sequence (P48730 whole entry): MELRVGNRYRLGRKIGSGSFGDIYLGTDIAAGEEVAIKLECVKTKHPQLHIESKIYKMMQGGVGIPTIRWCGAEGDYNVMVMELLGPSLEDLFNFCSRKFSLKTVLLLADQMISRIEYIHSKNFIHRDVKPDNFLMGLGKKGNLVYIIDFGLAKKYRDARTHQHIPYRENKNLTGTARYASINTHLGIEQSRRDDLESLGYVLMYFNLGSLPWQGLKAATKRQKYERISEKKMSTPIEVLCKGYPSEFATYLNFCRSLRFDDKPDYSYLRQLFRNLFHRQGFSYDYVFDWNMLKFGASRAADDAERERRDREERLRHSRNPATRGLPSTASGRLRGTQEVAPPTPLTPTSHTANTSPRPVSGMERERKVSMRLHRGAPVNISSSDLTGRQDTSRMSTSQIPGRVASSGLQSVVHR

A word on the IC50: it is the point on the concentration scale where inhibition reaches its midpoint. One may read the GI50 as the concentration at which growth is held to half of that of the control. In the case of `NC1=N/C(=C2/CCNC(=O)c3[nH]c4ccccc4c32)C(=O)N1` [Compound 2, 5-(2-amino-5-oxo-1,5-dihydro-imidazol-4-ylidene)-3,4,5,10-tetrahydro-2H-azepino[3,4-b]indol-1-one], the 50% inhibitory concentration (IC50) in the assay with IL-2 production (Homo sapiens, Jurkat, 24 h) came out at 3.5 µM; in the assay on IL-2 production (24 hr), 3.55 µM; in the assay with TNF-α production, 8.16 µM; with TNF-α production (Homo sapiens, THP-1, 3 h) it was 8.2 µM; in the assay with CDK1, 400 nM; at GSK-3β, 150 nM. For the same compound, the IC50 on CK1δ (h) was 1350 nM; against CK2 (h), > 10 µM; against MEK1 (h), 89 nM; at PKCα (h), 2540 nM; on PKCβII (h), 3.38 µM; against CHK1 it was 237 nM. The compound further yielded a half-maximal inhibitory concentration (IC50) against CHK2 of 8 nM. In addition, the GI50 with CEM leukemia cells was found to be 1730 nM.
